The results in this text go back to US5110904A (Abbott Laboratories, priority 1990, dated 1992).

Non-standard residues stand in square brackets, D forms with d. Residues, ends and D or L forms follow the SMILES beside them. *: point of attachment. dNMe1Nal = CN[C@H](Cc1cccc2ccccc12)C(=O)O; dPhe(4-Cl) = N[C@H](Cc1ccc(Cl)cc1)C(=O)O; 1Nal = N[C@@H](Cc1cccc2ccccc12)C(=O)O; d1Nal = N[C@H](Cc1cccc2ccccc12)C(=O)O; Lys(iPr) = CC(C)NCCCC[C@H](N)C(=O)O; NMeY = CN[C@@H](Cc1ccc(O)cc1)C(=O)O; dBta = N[C@H](Cc1csc2ccccc12)C(=O)O; NMeF = CN[C@@H](Cc1ccccc1)C(=O)O; d3Pal = N[C@H](Cc1cccnc1)C(=O)O; Cha = N[C@@H](CC1CCCCC1)C(=O)O; d2Thi = N[C@H](Cc1cccs1)C(=O)O; NMeL = CN[C@@H](CC(C)C)C(=O)O; pGlu = O=C1CC[C@@H](C(=O)O)N1; Nicotinoyl = O=C(c1cccnc1)*; NMeS = CN[C@@H](CO)C(=O)O; Sar = CNCC(=O)O; For = O=C*

The target of this assay is T1, LHRH receptors (Rattus norvegicus, UniProt P30969).
T1 sequence (P30969 1-327): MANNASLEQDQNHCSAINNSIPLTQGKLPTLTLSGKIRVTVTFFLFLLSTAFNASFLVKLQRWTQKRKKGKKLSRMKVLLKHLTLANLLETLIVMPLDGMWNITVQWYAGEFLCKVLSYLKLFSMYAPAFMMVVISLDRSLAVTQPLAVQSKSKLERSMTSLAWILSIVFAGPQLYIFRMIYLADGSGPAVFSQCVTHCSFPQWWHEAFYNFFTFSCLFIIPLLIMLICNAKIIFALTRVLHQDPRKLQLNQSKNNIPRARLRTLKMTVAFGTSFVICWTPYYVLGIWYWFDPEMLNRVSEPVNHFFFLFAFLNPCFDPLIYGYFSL
The experiment in a line: Radioligand receptor binding assay, rat pituitary membranes. To be noted: radioiodinated [D-Leu6-des Gly10]-LHRH ethyl amide 50 pM, 2 hours at 4° C., read-out: Receptor Binding pkI (converted). The procedure:
The radioligand (50 pM), receptors, and compounds to be tested are coincubated for 2 hours at 4° C. Bound ligand is separated from free ligand via centrifugation and aspiration.
Consider `CCNC(=O)[C@@H]1CCCN1C(=O)[C@H](CCCN=C(N)N)NC(=O)[C@H](CC(C)C)NC(=O)[C@@H](CC(C)C)NC(=O)[C@H](Cc1ccc(O)cc1)NC(=O)[C@H](CO)N(C)C(=O)[C@H](Cc1c[nH]c2ccccc12)NC(=O)[C@H](Cc1c[nH]cn1)NC(=O)[C@@H]1CCC(=O)N1` [Ex. 1, (pyro)Glu-His-Trp-N-Me-Ser-Tyr-D-Leu-Leu-Arg-Pro-NHEt] ([pGlu]HW[NMeS]Y[dL]LRP-NHEt), for which the Ki was 1.17 nM.

`CCNC(=O)[C@@H]1CCCN1C(=O)[C@H](CCCN=C(N)N)NC(=O)[C@H](CC(C)C)NC(=O)[C@@H](Cc1c[nH]c2ccccc12)NC(=O)[C@H](Cc1ccc(O)cc1)NC(=O)[C@H](CO)NC(=O)[C@H](Cc1c[nH]c2ccccc12)NC(=O)[C@H](Cc1ccccc1)N(C)C(=O)[C@@H]1CCC(=O)N1` [Ex. 19, (pyro)Glu-N-Me-Phe-Trp-Ser-Tyr-D-Trp-Leu-Arg-ProNHEt] ([pGlu][NMeF]WSY[dW]LRP-NHEt): the Ki was 0.038 nM.

On to `CCNC(=O)[C@@H]1CCCN1C(=O)[C@H](CCCN=C(N)N)N(C)C(=O)[C@H](CC(C)C)NC(=O)[C@@H](Cc1c[nH]c2ccccc12)NC(=O)[C@H](Cc1ccc(O)cc1)NC(=O)[C@H](CO)NC(=O)[C@H](Cc1c[nH]c2ccccc12)NC(=O)[C@H](Cc1cnc[nH]1)NC(=O)[C@@H]1CCC(=O)N1` [Ex. 23, (pyro)Glu-His-Trp-Ser-Tyr-D-Trp-Leu-N-Me-Arg-ProNHEt], for which the Ki was 0.0562 nM.

With `CC(=O)N[C@H](Cc1ccc(Cl)cc1)C(=O)N[C@H](Cc1ccc(Cl)cc1)C(=O)N[C@H](Cc1cccs1)C(=O)N[C@@H](CO)C(=O)N(C)[C@@H](Cc1ccc(O)cc1)C(=O)N[C@H](CCCCN)C(=O)N[C@@H](CC(C)C)C(=O)N[C@@H](CCCNC(=N)N)C(=O)N1CCC[C@H]1C(=O)N[C@H](C)C(N)=O` [Ex. 39, N-Ac-D-4-Cl-Phe-D-4-Cl-Phe-D-2-Thia-Ser-N-Me-Tyr-D-Lys-Leu-Arg-Pro-D-AlaNH2] (Ac-[dPhe(4-Cl)][dPhe(4-Cl)][d2Thi]S[NMeY][dK]LRP[dA]-NH2), the Ki is 0.0355 nM.

As to `CC(=O)NCC(=O)N[C@H](Cc1ccc(Cl)cc1)C(=O)N[C@H](Cc1cccnc1)C(=O)N[C@@H](CO)C(=O)N(C)[C@@H](Cc1ccc(O)cc1)C(=O)N[C@H](CCCCNC(=O)c1cccnc1)C(=O)N[C@@H](CC(C)C)C(=O)N[C@@H](CCCCNC(C)C)C(=O)N1CCC[C@H]1C(=O)N[C@H](C)C(N)=O` [Ex. 42, N-Ac-Gly-D-4-Cl-Phe-D-3-Pal-Ser-N-Me-Tyr-D-Lys-(N-epsilon-nicotinyl)-Leu-Lys(N-epsilon-isopropyl)-Pro-D-AlaNH2] (Ac-G[dPhe(4-Cl)][d3Pal]S[NMeY][dK](Nicotinoyl)L[Lys(iPr)]P[dA]-NH2), the Ki was 0.603 nM.

For `CC(=O)N[C@H](Cc1ccc(Cl)cc1)C(=O)N[C@H](Cc1ccc(Cl)cc1)C(=O)N[C@H](Cc1cccs1)C(=O)N[C@@H](CO)C(=O)N(C)[C@@H](Cc1ccc(O)cc1)C(=O)N[C@H](CCCCN)C(=O)N(C)[C@@H](CC(C)C)C(=O)N[C@@H](CCCNC(=N)N)C(=O)N1CCC[C@H]1C(=O)N[C@H](C)C(N)=O` [Ex. 45, N-Ac-D-4-Cl-Phe-D-4-Cl-Phe-D-2-Thia-Ser-N-Me-Tyr-D-Lys-N-Me-Leu-Arg-Pro-D-AlaNH4] (Ac-[dPhe(4-Cl)][dPhe(4-Cl)][d2Thi]S[NMeY][dK][NMeL]RP[dA]-NH2), the Ki is 0.0138 nM.

As for `CC(=O)N[C@H](Cc1ccc(Cl)cc1)C(=O)N[C@H](Cc1ccc(Cl)cc1)C(=O)N[C@H](Cc1cccc2ccccc12)C(=O)N[C@@H](CO)C(=O)N(C)[C@@H](Cc1ccc(O)cc1)C(=O)N[C@H](CCCCN)C(=O)N[C@@H](CC1CCCCC1)C(=O)N[C@@H](CCCNC(=N)N)C(=O)N1CCC[C@H]1C(=O)N[C@H](C)C(N)=O` [Ex. 47, N-Ac-D-4-Cl-Phe-D-4-Cl-Phe-D-1-Nal-Ser-N-Me-Tyr-D-Lys-Cha-Arg-Pro-D-AlaNH2] (Ac-[dPhe(4-Cl)][dPhe(4-Cl)][d1Nal]S[NMeY][dK][Cha]RP[dA]-NH2), the Ki was 0.038 nM.

`CC(=O)N(C)CC(=O)N[C@H](Cc1ccc(Cl)cc1)C(=O)N[C@H](Cc1cccc2ccccc12)C(=O)N[C@@H](CO)C(=O)N(C)[C@@H](Cc1ccc(O)cc1)C(=O)N[C@H](CCCCN)C(=O)N[C@@H](CC(C)C)C(=O)N[C@@H](CCCNC(=N)N)C(=O)N1CCC[C@H]1C(=O)N[C@H](C)C(N)=O` [Ex. 48, N-Ac-Sar-D-4-Cl-Phe-D-1-Nal-Ser-N-Me-Tyr-D-Lys-Leu-Arg-Pro-D-AlaNH2] (Ac-[Sar][dPhe(4-Cl)][d1Nal]S[NMeY][dK]LRP[dA]-NH2): the Ki is 0.01 nM.

For `CC(=O)N(C)CC(=O)N[C@H](Cc1ccc(Cl)cc1)C(=O)N[C@H](Cc1cccs1)C(=O)N[C@@H](CO)C(=O)N(C)[C@@H](Cc1ccc(O)cc1)C(=O)N[C@H](CCCCN)C(=O)N[C@@H](CC(C)C)C(=O)N[C@@H](CCCNC(=N)N)C(=O)N1CCC[C@H]1C(=O)N[C@H](C)C(N)=O` [Ex. 49, N-Ac-Sar-D-4-Cl-Phe-D-2-Thia-Ser-N-Me-Tyr-D-Lys-Leu-Arg-Pro-D-AlaNH2] (Ac-[Sar][dPhe(4-Cl)][d2Thi]S[NMeY][dK]LRP[dA]-NH2), the Ki is 0.0316 nM.

Take `CC(=O)N(C)CC(=O)N[C@H](Cc1ccc(Cl)cc1)C(=O)N[C@H](Cc1cccc2ccccc12)C(=O)N[C@@H](CO)C(=O)N(C)[C@@H](Cc1ccc(O)cc1)C(=O)N[C@H](Cc1cccnc1)C(=O)N[C@@H](CC(C)C)C(=O)N[C@@H](CCCNC(=N)N)C(=O)N1CCC[C@H]1C(=O)N[C@H](C)C(N)=O` [Ex. 50, N-Ac-Sar-D-4-Cl-Phe-D-1-Nal-Ser-N-Me-Tyr-D-3-Pal-Leu-Arg-Pro-D-AlaNH4] (Ac-[Sar][dPhe(4-Cl)][d1Nal]S[NMeY][d3Pal]LRP[dA]-NH2): the Ki is 0.0138 nM.

For the compound `CC(=O)N(C)CC(=O)N[C@H](Cc1ccc(Cl)cc1)C(=O)N[C@H](Cc1cccc2ccccc12)C(=O)N[C@@H](CO)C(=O)N(C)[C@@H](Cc1ccc(O)cc1)C(=O)N[C@H](CCCCNC(=O)c1cccnc1)C(=O)N[C@@H](CC(C)C)C(=O)N[C@@H](CCCNC(=N)N)C(=O)N1CCC[C@H]1C(=O)N[C@H](C)C(N)=O` [Ex. 51, N-Ac-Sar-D-4-Cl-Phe-D-1-Nal-Ser-N-Me-Tyr-D-Tys(N-epsilon-nicotinyl)-Leu-Arg-Pro-D-AlaNH2] (Ac-[Sar][dPhe(4-Cl)][d1Nal]S[NMeY][dK](Nicotinoyl)LRP[dA]-NH2), the Ki was 0.0269 nM.

Take `CC(=O)N(C)CC(=O)N[C@H](Cc1ccc(Cl)cc1)C(=O)N[C@@H](Cc1cccc2ccccc12)C(=O)N[C@@H](CO)C(=O)N(C)[C@@H](Cc1ccc(O)cc1)C(=O)N[C@H](CCCCN)C(=O)N[C@@H](CC(C)C)C(=O)N[C@@H](CCCNC(=N)N)C(=O)N1CCC[C@H]1C(=O)N[C@H](C)C(N)=O` [Ex. 52, N-Ac-Sar-D-4-Cl-Phe-1-Nal-Ser-N-Me-Tyr-D-Lys-Leu-Arg-Pro-D-AlaNH4] (Ac-[Sar][dPhe(4-Cl)][1Nal]S[NMeY][dK]LRP[dA]-NH2): the Ki is 0.017 nM.

`CC(=O)NCC(=O)N[C@H](Cc1ccc(Cl)cc1)C(=O)N[C@H](Cc1cccc2ccccc12)C(=O)N[C@@H](CO)C(=O)N(C)[C@@H](Cc1ccc(O)cc1)C(=O)N[C@H](CCCCN)C(=O)N[C@@H](CC(C)C)C(=O)N[C@@H](CCCNC(=N)N)C(=O)N1CCC[C@H]1C(=O)N[C@H](C)C(N)=O` [Ex. 53, N-Ac-Gly-D-4-Cl-Phe-D-1-Nal-Ser-N-Me-Tyr-D-Lys-Leu-Arg-Pro-D-AlaNH2] (Ac-G[dPhe(4-Cl)][d1Nal]S[NMeY][dK]LRP[dA]-NH2): the Ki is 0.0132 nM.

With `CC(=O)N[C@H](Cc1ccc(Cl)cc1)C(=O)N[C@H](Cc1ccc(Cl)cc1)C(=O)N[C@H](Cc1csc2ccccc12)C(=O)N[C@@H](CO)C(=O)N(C)[C@@H](Cc1ccc(O)cc1)C(=O)N[C@H](CCCCN)C(=O)N[C@@H](CC(C)C)C(=O)N[C@@H](CCCN=C(N)N)C(=O)N1CCC[C@H]1C(=O)N[C@H](C)C(N)=O` [Ex. 54, N-Ac-D-4-Cl-Phe-D-4-Cl-Phe-D-3-Bal-Ser-N-Me-Tyr-D-Lys-Leu-Arg-Pro-D-AlaNH2] (Ac-[dPhe(4-Cl)][dPhe(4-Cl)][dBta]S[NMeY][dK]LRP[dA]-NH2), the Ki was 0.0339 nM.

In the case of `CC(=O)N[C@H](Cc1ccc(Cl)cc1)C(=O)N[C@H](Cc1ccc(Cl)cc1)C(=O)N[C@H](Cc1cn(C=O)c2ccccc12)C(=O)N[C@@H](CO)C(=O)N(C)[C@@H](Cc1ccc(O)cc1)C(=O)N[C@H](CCCCN)C(=O)N[C@@H](CC(C)C)C(=O)N[C@@H](CCCNC(=N)N)C(=O)N1CCC[C@H]1C(=O)N[C@H](C)C(N)=O` [Ex. 55, N-Ac-D-4-Cl-Phe-D-4-Cl-Phe-D-Trp(formyl)-Ser-N-Me-Tyr-D-Lys-Leu-Arg-Pro-D-AlaNH2] (Ac-[dPhe(4-Cl)][dPhe(4-Cl)][dW](For)S[NMeY][dK]LRP[dA]-NH2), the Ki was 0.0219 nM.

For the compound `CC(=O)N[C@H](Cc1ccc(Cl)cc1)C(=O)N[C@H](Cc1ccc(Cl)cc1)C(=O)N(C)[C@H](Cc1cccc2ccccc12)C(=O)N[C@@H](CO)C(=O)N(C)[C@@H](Cc1ccc(O)cc1)C(=O)N[C@H](CCCCN)C(=O)N[C@@H](CC(C)C)C(=O)N[C@@H](CCCNC(=N)N)C(=O)N1CCC[C@H]1C(=O)N[C@H](C)C(N)=O` [Ex. 56, N-Ac-D-4-Cl-Phe-D-4-Cl-Phe-N-Me-D-1-Nal-Ser-N-Me-Tyr-D-Lys-Leu-Arg-Pro-D-AlaNH2] (Ac-[dPhe(4-Cl)][dPhe(4-Cl)][dNMe1Nal]S[NMeY][dK]LRP[dA]-NH2), the Ki was 0.676 nM.
